The SangsterLogP compilation

| Compound | logP |
| --- | --- |
| Clc1ccccc1N1CCNCC1 | 2.13 |
| Clc1ccc(N2CCNCC2)cc1 | 2.01 |
| Cc1ccccc1N1CCNCC1 | 2.14 |
| c1cnc(N2CCNCC2)nc1 | 0.49 |
| c1ccc2nc(N3CCNCC3)ccc2c1 | 2.04 |
| c1ccc(N2CCNCC2)nc1 | 0.74 |
| c1ccc2c(N3CCNCC3)nsc2c1 | 2.14 |
| c1csc(N2CCNCC2)n1 | 0.61 |
| Clc1cccc(N2CCNCC2)c1 | 2.11 |
| Fc1ccc(N2CCNCC2)cc1 | 1.28 |
| FC(F)(F)c1cccc(N2CCNCC2)c1 | 2.43 |
| Fc1cnc(N2CCNCC2)nc1 | 0.97 |
| COc1ccccc1N1CCNCC1 | 1.09 |
